Results as given in patent US12365699B2, “Elastase inhibitor prodrug and use thereof” (SUZHOU ARK BIOPHARMACEUTICAL CO., LTD., priority 2020, dated 2025).

Tests used:
[1] = Stability test of prodrug in simulated lung fluids (Gamble's buffer, ALF buffer) at 37° C., HPLC ratio of prodrug and hydrolyzate; type: physicochemical; conditions: for hydrolysis: linear hydrolysis; for ratio of the hydrolysis: within half an hour, ratio maintained for the next 20 hours
Protocol: (§1) Two simulated lung fluids including Gamble's buffer and ALF buffer were prepared according to literature reports (Marques M. R. C., Loebenberg R., Almukainzi M., Simulated Biological Fluids with Possible Application in Dissolution Testing, Dissolution Technologies, 2011, 18(3): 15-28) to test the prodrug stability in simulated lung fluids. In addition, according to the need for animal experimental preparations and sample analysis, three different solvents were prepared: vehicle for animal experiments (water with 5% ethanol), anhydrous ethanol and acetonitrile. They were used to test the stability of pre-dose formulations in animals and collected samples during analysis. Dissolve example 1 compound (2 mg) and example 2 compound (2 mg) in 1 mL of the above-filtered buffer or solvent, respectively. Observe whether there is undissolved particulate matter after vortex shaking, and then filter the suspension or solution to remove undissolved compounds and immediately take 100 μL as the sample at the start of the stability test. Then the ratio of prodrug and hydrolyzate (namely compound 52 in WO 2018/175173 A1, used as a control) was analyzed by HPLC. Afterwards the samples in the two simulated lung fluids were placed on an orbital shaker at 37° C. and shaken at 200 rpm, and sampling at 0.5 hours, 1 hour, 2 hours, 4 hours and 20 hours, and the ratio of prodrug and hydrolyzate were analyzed by HPLC immediately. Let the samples dissolved in the three solvents stand at room temperature, sampling at 1 hour, 3 hours, and 18 hours, and the ratio of prodrug and hydrolyzate were immediately detected.

[2] = Stability test of prodrug in different solvents (vehicle water with 5% ethanol, anhydrous ethanol, acetonitrile) at room temperature; type: physicochemical
Protocol: as §1

[3] = In vivo pharmacokinetics in mice, pulmonary drug concentration after intratracheal administration; design: species or system male C57BL/6 mice; conditions: intratracheal 2 mg/kg
Description: Compare the pharmacokinetics of the final prodrug compound of Example 1 and the control example (compound 52 in WO 2018/175173 A1) in mice:
7-9-week-old male C57BL/6 mice were randomly divided into two groups after the adaptation phase: the elastase inhibitor control group and the Example 1 group.

[4] = male, C57BL/6, mouse, lung, other: intratracheal, parent compound dosed, read-out: drug concentration in the lungs

SMILES	hydrolysis ([1]; acidic ALF buffer (pH 4.5), in about 15 hours)	hydrolysis ([1]; neutral Gamble's buffer (pH 7.4), at 2.5 hours)	hydrolysis in acetonitrile ([2]; up to 18 hours)	hydrolysis rate ([2]; anhydrous ethanol)	hydrolysis rate ([2]; resolvent)	drug concentration in the lungs ([3]; parent compound dosed, at 12 hours)	concentration at 6 h [3, 4]	ratio of the hydrolysis ([1]; acidic ALF buffer (pH 4.5))	ratio of the hydrolysis ([1]; neutral Gamble's buffer (pH 7.4))	hydrolysis in anhydrous ethanol ([2]; anhydrous ethanol, up to 18 hours)	hydrolyzed in the resolvent ([2]; resolvent, after 18 hours)	hydrolyzed in the resolvent ([2]; resolvent, in 3 hours)	conversion of prodrug in mice [3]	effect on lung concentration and residence time of the control example compared to direct administration of the control example [3]	concentration at 12 h ([3]; male, C57BL/6, mouse, lung, other: intratracheal, parent compound dosed, at 12 hours, read-out: drug concentration in the lungs)
CC(C)[C@H](NC(=O)c1ccc(C(=O)NCC(=O)O)cc1)C(=O)N1CCC[C@H]1C(=O)N[C@@H](C(C)C)[B-]12OC(=O)C[N+]1(C)CC(=O)O2 (stereo partly drawn) [Example 2, N-(4-(((S)-3-methyl-1-((S)-2-(((R)-2-methyl-1-(6-methyl-4,8-dioxo-1,3,6,2-dioxazaborocan-2-yl)propyl)carbamoyl)pyrrolidin-1-yl)-1-oxobutan-2-yl)carbamoyl)benzoyl)glycine]	about 50%	about 50%	did not hydrolyze	about 0.5 % per hour	about 1 % hydrolysis per hour										
CC(C)[C@H](NC(=O)[C@@H]1CCCN1C(=O)[C@@H](NC(=O)c1ccc(C(=O)NCC(=O)O)cc1)C(C)C)B(O)O [control example, N-(4-(((S)-1-((S)-2-(((R)-1-borono-2-methylpropyl)carbamoyl)pyrrolidin-1-yl)-3-methyl-1-oxobutan-2-yl)carbamoyl)benzoyl)glycine, reference compound]						completely cleared	153 ng/g								
CC(C)[C@H](NC(=O)[C@@H]1CCCN1C(=O)[C@@H](NC(=O)c1ccc(C(=O)NCC(=O)O)cc1)C(C)C)B1O[C@@H]2C[C@@H]3C[C@@H](C3(C)C)[C@]2(C)O1 [Example 1, N-(4-(((S)-3-methyl-1-((S)-2-(((R)-2-methyl-1-((3aS,4S,6S,7aR)-3a,5,5-trimethylhexahydro-4,6-methanobenzo[d][1,3,2]dioxaborol-2-yl)propyl)carbamoyl)pyrrolidin-1-yl)-1-oxobutan-2-yl)carbamoyl)benzoyl)glycine]			hardly hydrolyzed				1070 ng/g	40%	25%	hardly hydrolyzed	about 20%	about 18%	quickly converted into the control example	greatly increases the concentration and residence time of the control example in the lungs	120 ng/g
